# Laboratory results as given in patent US20010043936A1, “CHEMICAL COMPOSITION” (priority 1997, published 2001).
# Experiments:
# [1] = system: Mixed Bacteria; assay: Inoculation test of preserved cream formulation with mixed bacteria, surviving organisms counted; format: cell-based; details: control: IPBC 25 ppm, PhOH 0 ppm in cream
# [2] = system: Mixed Fungi; assay: Inoculation test of preserved cream formulation with mixed fungi, surviving organisms counted; format: cell-based; details: control: IPBC 25 ppm, PhOH 0 ppm in cream
# Experimental: A batch of a cream formulation comprising an oil-in-water emulsion containing 7.5 wt % Crodex A (an emulsifying wax ex-Croda Chemicals), 5.0 wt % propylene glycol and 87.5 wt % sterile water was prepared using a homogenising mixer.
# Portions of the cream formulation were admixed with a preservative system comprising iodopropynyl butyl carbamate and phenoxyethanol at varying weight ratios of iodopropynyl butyl carbamate to phenoxyethanol. In each case the content of the iodopropynyl butyl carbamate in the cream formulation was kept constant at a level of 0.0025 wt % with respect of the total weight of the formulation.
# Each portion of the formulation was divided into two. One specimen was inoculated with 7.5×10^7 mixed bacteria per g of cream. The other specimen was inoculated with 2.4×10^6 mixed fungi per g of cream.
# For each specimen the number of surviving organisms was determined at 0 hours, […] and 72 hours after inoculation.
substance,measurement,setting,value
iodopropynyl butyl carbamate [IPBC],"organisms surviving, Mixed Bacteria, 0 Hours",[1]; 0 Hours,TNTC
same,"organisms surviving, Mixed Bacteria, 24 Hours",[1]; 24 Hours,1.8 × 10^6
same,"organisms surviving, Mixed Bacteria, 72 Hours",[1]; 72 Hours,2.9 × 10^5
same,"organisms surviving, Mixed Fungi, 0 Hours",[2]; 0 Hours,8 × 10^5
same,"organisms surviving, Mixed Fungi, 24 Hours",[2]; 24 Hours,1.2 × 10^5
same,"organisms surviving, Mixed Fungi, 72 Hours",[2]; 72 Hours,5.2 × 10^4
